System: EoL-1 (human eosinophilic leukaemia cell line) cells
Assay: TNF-α-induced cytokine release, EoL-1 cells differentiated with PMA (Luminex)
Assay type: cell-based
Parameters: key to IL-1α (PMA), p of decrement / IL-1β (PMA), p of decrement / IL-1ra (PMA), p of decrement / IL-5 (PMA), p of decrement / IL-7 (PMA), p of decrement / IL-8 (PMA), p of decrement / IP-10 (PMA), p of decrement / MCP-1 (PMA), p of decrement / MIP-1β (PMA), p of decrement / RANTES (PMA), p of decrement / VEGF (PMA), p of decrement / Fractalkine (PMA), p of decrement / MIP-1α (PMA), p of decrement: ns = non significant
Description: EoL-1 (human eosinophilic leukaemia cell line) cells (Saito et al., 1985; Mayumi, 1992) were maintained in RPMI-1640 medium with L-glutamine supplemented with 10% (v/v) FBS at 37° C. in a humidified atmosphere with 5% CO2. Where indicated, 24 h before the experiment 25 ng/mL PMA ((phorbol 12-myristate 13-acetate, purchased from Sigma Aldrich) was added to the medium to induce eosinophil granulation and differentiation (Ohtsu et al., 1993; Zimmermann et al., 2000).
Half-million cells were aliquoted per point in a 24 well plate; each experiment was performed in triplicate and carried out in parallel with eosinophils differentiated and non differentiated with PMA (25 ng/mL, 24 h). Cells were suspended in low serum medium (RPMI-1640, 0.1% (v/v) FBS). TNF-α was used to induce cytokine secretion as previously described by Steube et al. (2000), and the net release was obtained by comparison to the basal (non-TNF-α treated). In the first experiment we evaluated the concentration and time relation between TNF-α stimulation and cytokine release. Therefore, 5, 10, and 25 ng/mL of TNF-α was administered to the cells at 0, ½, 1, 2, 3, 6, 12 and 24 h (data not shown). An aliquot of 150 μL of supernate was collected for cytokines' analysis. […] Differentiated and non-differentiated EoL-1 cells were exposed from 0.1 to 2.3 mM levocabastine ([…]Levocabastine 0.05% solution eye drops containing cyclodextrins, without benzalkonium chloride), and aliquots of the supernates were collected after 12 and 24 h. The content of cytokines at time zero was estimated by treating the cells with 400 nM calcimycin (A-23187), which is a cytolytic agent that frees all the mediators from the cytoplasmic compartment. In addition, for each experiment we tested the effect of the vehicle, which was added to the wells in a concentration equal to the maximum amount used for drug dilution.
Samples (supernates 12 and 24 h) in triplicate were analyzed using Luminex 200™ (Luminex, Austin, Tex.) and Beadview software v1.0 (Upstate Cell Signaling Solutions, Temecula, Calif.).
All data are presented as mean±SEM for the indicated number of experiments. Statistical significance was determined by Newman-Keuls test after ANOVA using GraphPad Prism (version 3.0; GraphPad Software Inc., San Diego, Calif., USA). P-values<0.05 were considered to be significant.

[1] = 24 h, Levocabastine 2 mM vs TNF-α
[2] = 24 h, TNF-α 5 ng + Levocabastine 2 mM vs TNF-α
[3] = 24 h, TNF-α 10 ng + Levocabastine 2 mM vs TNF-α
[4] = 24 h, TNF-α 20 ng + Levocabastine 2 mM vs TNF-α
[5] = 24 h, TNF-α 5, 10, 20 ng + Levocabastine 2 mM vs TNF-α
[6] = 24 h, VCAM-1 + Levocabastine 2 mM vs VCAM-1

C[C@@H]1CN([C@H]2CC[C@](C#N)(c3ccc(F)cc3)CC2)CC[C@]1(C(=O)O)c1ccccc1 [Levocabastine, levocabastine]
IL-12p40 (PMA), p of decrement [1]: P < 0.001
IP-10 (PMA), p of decrement [1]: ns
MCP-1 (PMA), p of decrement [1]: ns
MIP-1α (PMA), p of decrement [1]: Increase
MIP-1β (PMA), p of decrement [1]: Increase
RANTES (PMA), p of decrement [1]: Increase
TGF-α (PMA), p of decrement [1]: ns
VEGF (PMA), p of decrement [1]: P < 0.001
Fractalkine (PMA), p of decrement [2]: ns
G-CSF (PMA), p of decrement [2]: ns
GM CSF (PMA), p of decrement [2]: ns
IL-1β (PMA), p of decrement [2]: ns
IL-5 (PMA), p of decrement [2]: ns
IL-6 (PMA), p of decrement [2]: ns
IL-7 (PMA), p of decrement [2]: ns
IL-8 (PMA), p of decrement [2]: P < 0.001
IL-10 (PMA), p of decrement [2]: ns
IL-12p40 (PMA), p of decrement [2]: ns
IP-10 (PMA), p of decrement [2]: ns
MCP-1 (PMA), p of decrement [2]: ns
MIP-1α (PMA), p of decrement [2]: ns
MIP-1β (PMA), p of decrement [2]: ns
TGF-α (PMA), p of decrement [2]: ns
VEGF (PMA), p of decrement [2]: P < 0.05
Fractalkine (PMA), p of decrement [3]: ns
G-CSF (PMA), p of decrement [3]: ns
GM CSF (PMA), p of decrement [3]: ns
IL-1β (PMA), p of decrement [3]: ns
IL-5 (PMA), p of decrement [3]: ns
IL-6 (PMA), p of decrement [3]: ns
IL-7 (PMA), p of decrement [3]: ns
IL-8 (PMA), p of decrement [3]: P < 0.001
IL-10 (PMA), p of decrement [3]: ns
IL-12p40 (PMA), p of decrement [3]: ns
IP-10 (PMA), p of decrement [3]: ns
MCP-1 (PMA), p of decrement [3]: ns
MIP-1α (PMA), p of decrement [3]: ns
MIP-1β (PMA), p of decrement [3]: ns
TGF-α (PMA), p of decrement [3]: ns
VEGF (PMA), p of decrement [3]: ns
Fractalkine (PMA), p of decrement [4]: ns
G-CSF (PMA), p of decrement [4]: ns
GM CSF (PMA), p of decrement [4]: ns
IL-1β (PMA), p of decrement [4]: ns
IL-5 (PMA), p of decrement [4]: ns
IL-6 (PMA), p of decrement [4]: ns
IL-7 (PMA), p of decrement [4]: ns
IL-8 (PMA), p of decrement [4]: P < 0.001
IL-10 (PMA), p of decrement [4]: ns
IL-12p40 (PMA), p of decrement [4]: ns
IP-10 (PMA), p of decrement [4]: ns
MCP-1 (PMA), p of decrement [4]: ns
MIP-1α (PMA), p of decrement [4]: ns
MIP-1β (PMA), p of decrement [4]: ns
TGF-α (PMA), p of decrement [4]: ns
VEGF (PMA), p of decrement [4]: P < 0.05
IL-1ra (PMA), p of decrement [5]: increase of cytokine secretion
IL-1α (PMA), p of decrement [5]: increase of cytokine secretion
RANTES (PMA), p of decrement [5]: increase of cytokine secretion
Fractalkine (PMA), p of decrement (24 h, TNF-α vs Lev 0.1 mM): ns
IL-1ra (PMA), p of decrement (24 h, TNF-α vs Lev 0.1 mM): ns
IL-1α (PMA), p of decrement (24 h, TNF-α vs Lev 0.1 mM): ns
IL-1β (PMA), p of decrement (24 h, TNF-α vs Lev 0.1 mM): p < 0.05
IL-5 (PMA), p of decrement (24 h, TNF-α vs Lev 0.1 mM): ns
IL-7 (PMA), p of decrement (24 h, TNF-α vs Lev 0.1 mM): ns
IL-8 (PMA), p of decrement (24 h, TNF-α vs Lev 0.1 mM): ns
IP-10 (PMA), p of decrement (24 h, TNF-α vs Lev 0.1 mM): ns
MCP-1 (PMA), p of decrement (24 h, TNF-α vs Lev 0.1 mM): ns
MIP-1α (PMA), p of decrement (24 h, TNF-α vs Lev 0.1 mM): ns
MIP-1β (PMA), p of decrement (24 h, TNF-α vs Lev 0.1 mM): ns
RANTES (PMA), p of decrement (24 h, TNF-α vs Lev 0.1 mM): ns
VEGF (PMA), p of decrement (24 h, TNF-α vs Lev 0.1 mM): ns
Fractalkine (PMA), p of decrement (24 h, TNF-α vs Lev 0.5 mM): ns
IL-1ra (PMA), p of decrement (24 h, TNF-α vs Lev 0.5 mM): ns
IL-1α (PMA), p of decrement (24 h, TNF-α vs Lev 0.5 mM): ns
IL-1β (PMA), p of decrement (24 h, TNF-α vs Lev 0.5 mM): ns
IL-5 (PMA), p of decrement (24 h, TNF-α vs Lev 0.5 mM): ns
IL-7 (PMA), p of decrement (24 h, TNF-α vs Lev 0.5 mM): ns
IL-8 (PMA), p of decrement (24 h, TNF-α vs Lev 0.5 mM): ns
IP-10 (PMA), p of decrement (24 h, TNF-α vs Lev 0.5 mM): ns
MCP-1 (PMA), p of decrement (24 h, TNF-α vs Lev 0.5 mM): ns
MIP-1α (PMA), p of decrement (24 h, TNF-α vs Lev 0.5 mM): ns
MIP-1β (PMA), p of decrement (24 h, TNF-α vs Lev 0.5 mM): ns
RANTES (PMA), p of decrement (24 h, TNF-α vs Lev 0.5 mM): ns
VEGF (PMA), p of decrement (24 h, TNF-α vs Lev 0.5 mM): ns
Fractalkine (PMA), p of decrement (24 h, TNF-α vs Lev 1.0 mM): ns
IL-1ra (PMA), p of decrement (24 h, TNF-α vs Lev 1.0 mM): ns
IL-1α (PMA), p of decrement (24 h, TNF-α vs Lev 1.0 mM): ns
IL-1β (PMA), p of decrement (24 h, TNF-α vs Lev 1.0 mM): p < 0.05
IL-5 (PMA), p of decrement (24 h, TNF-α vs Lev 1.0 mM): ns
IL-7 (PMA), p of decrement (24 h, TNF-α vs Lev 1.0 mM): ns
IL-8 (PMA), p of decrement (24 h, TNF-α vs Lev 1.0 mM): ns
IP-10 (PMA), p of decrement (24 h, TNF-α vs Lev 1.0 mM): ns
MCP-1 (PMA), p of decrement (24 h, TNF-α vs Lev 1.0 mM): ns
MIP-1α (PMA), p of decrement (24 h, TNF-α vs Lev 1.0 mM): ns
MIP-1β (PMA), p of decrement (24 h, TNF-α vs Lev 1.0 mM): ns
RANTES (PMA), p of decrement (24 h, TNF-α vs Lev 1.0 mM): ns
VEGF (PMA), p of decrement (24 h, TNF-α vs Lev 1.0 mM): p < 0.05
Fractalkine (PMA), p of decrement (24 h, TNF-α vs Lev 2.3 mM): p < 0.01
IL-1ra (PMA), p of decrement (24 h, TNF-α vs Lev 2.3 mM): ns
IL-1α (PMA), p of decrement (24 h, TNF-α vs Lev 2.3 mM): ns
IL-1β (PMA), p of decrement (24 h, TNF-α vs Lev 2.3 mM): ns
IL-5 (PMA), p of decrement (24 h, TNF-α vs Lev 2.3 mM): ns
IL-7 (PMA), p of decrement (24 h, TNF-α vs Lev 2.3 mM): ns
IL-8 (PMA), p of decrement (24 h, TNF-α vs Lev 2.3 mM): ns
IP-10 (PMA), p of decrement (24 h, TNF-α vs Lev 2.3 mM): ns
MCP-1 (PMA), p of decrement (24 h, TNF-α vs Lev 2.3 mM): ns
MIP-1α (PMA), p of decrement (24 h, TNF-α vs Lev 2.3 mM): ns
MIP-1β (PMA), p of decrement (24 h, TNF-α vs Lev 2.3 mM): ns
RANTES (PMA), p of decrement (24 h, TNF-α vs Lev 2.3 mM): ns
VEGF (PMA), p of decrement (24 h, TNF-α vs Lev 2.3 mM): p < 0.01
Fractalkine (PMA), p of decrement [6]: ns
G-CSF (PMA), p of decrement [6]: Increase
GM-CSF (PMA), p of decrement [6]: ns
IL-1ra (PMA), p of decrement [6]: Increase
IL-1α (PMA), p of decrement [6]: Increase
IL-1β (PMA), p of decrement [6]: ns
IL-5 (PMA), p of decrement [6]: ns
IL-6 (PMA), p of decrement [6]: ns
IL-7 (PMA), p of decrement [6]: Increase
IL-8 (PMA), p of decrement [6]: Increase
IL-10 (PMA), p of decrement [6]: ns
IL-12p40 (PMA), p of decrement [6]: P < 0.01
IP-10 (PMA), p of decrement [6]: ns
MCP-1 (PMA), p of decrement [6]: Increase
MIP-1α (PMA), p of decrement [6]: Increase
MIP-1β (PMA), p of decrement [6]: Increase
RANTES (PMA), p of decrement [6]: Increase
TGF-α (PMA), p of decrement [6]: ns
VEGF (PMA), p of decrement [6]: P < 0.001
release of VEGF (FIG. 4 Panel A) (EoL-1 cells differentiated with PMA 24 h before the experiment): able to reduce the release
IL-8 release (FIG. 9) (PMA differentiated EoL-1 cells after TNF-α challenge): able to reduce

From patent US20130289070A1, “Use of Levocabastine for Modulating Generation of Pro-Inflammatory Cytokines” (Bausch & Lomb Incorporated, priority 2007, published 2013)
